Results published in US9688736B2, “Compound for treatment of severe hypoglycemia” (Eli Lilly and Company, priority 2013, dated 2017).
Where two headings read alike, the source gives them in different places. Square brackets hold non-standard residues; d marks the D form. Peptide text beside a SMILES is read from it. Aib = CC(C)(N)C(=O)O

What was measured:
[1] = biological target: T1, mouse glucagon receptor (mGR) (Mus musculus, UniProt Q61606); test: Mouse glucagon receptor binding assay (SPA); settings: 293HEK membranes, 125I-labelled glucagon
T1 construct: expressed in transfected cells; host or cells: 293HEK cells in suspension culture (crude plasma membranes)
T1 sequence (Q61606 27-485): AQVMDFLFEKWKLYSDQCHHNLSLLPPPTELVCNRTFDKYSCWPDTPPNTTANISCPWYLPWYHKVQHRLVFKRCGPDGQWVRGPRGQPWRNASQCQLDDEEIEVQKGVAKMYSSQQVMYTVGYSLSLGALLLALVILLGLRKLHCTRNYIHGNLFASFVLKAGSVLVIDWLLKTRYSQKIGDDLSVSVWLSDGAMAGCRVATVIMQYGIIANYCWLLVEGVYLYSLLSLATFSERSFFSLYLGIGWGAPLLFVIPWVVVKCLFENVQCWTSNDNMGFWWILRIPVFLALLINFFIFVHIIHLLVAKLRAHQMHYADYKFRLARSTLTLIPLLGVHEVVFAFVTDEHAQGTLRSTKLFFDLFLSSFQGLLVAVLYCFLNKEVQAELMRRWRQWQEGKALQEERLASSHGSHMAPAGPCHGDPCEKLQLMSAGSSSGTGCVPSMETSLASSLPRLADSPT

human GIP-R = biological target: T2, human GIP-R (Homo sapiens, UniProt P48546); test: Glucose-dependent insulinotropic peptide receptor binding assay (SPA); settings: CHO-S membranes, radioiodinated GIP
T2 construct: expressed in transfected cells; host or cells: CHO-S suspension cells (crude plasma membranes)
T2 sequence (P48546 22-466): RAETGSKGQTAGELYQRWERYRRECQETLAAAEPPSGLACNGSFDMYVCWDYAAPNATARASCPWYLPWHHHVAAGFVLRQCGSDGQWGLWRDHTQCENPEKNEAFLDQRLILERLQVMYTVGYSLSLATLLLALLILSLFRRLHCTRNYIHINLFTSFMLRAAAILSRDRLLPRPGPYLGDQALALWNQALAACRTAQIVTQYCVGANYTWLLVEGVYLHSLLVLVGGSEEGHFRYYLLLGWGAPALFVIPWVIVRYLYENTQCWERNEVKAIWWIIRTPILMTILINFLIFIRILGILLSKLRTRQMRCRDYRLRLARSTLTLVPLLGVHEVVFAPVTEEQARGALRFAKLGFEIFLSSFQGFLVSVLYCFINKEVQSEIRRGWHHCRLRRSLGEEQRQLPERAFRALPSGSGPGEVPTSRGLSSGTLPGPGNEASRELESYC

[2] = biological target: T3, human glucagon-like peptide 1 receptor (hGLP-1R) (Homo sapiens, UniProt P43220); test: Glucagon-like-peptide 1 receptor binding assay (SPA); settings: 293HEK membranes, 125I-labelled GLP-1 amide
T3 construct: expressed in transfected cells; host or cells: 293HEK suspension cells (crude plasma membranes)
T3 sequence (P43220 24-463): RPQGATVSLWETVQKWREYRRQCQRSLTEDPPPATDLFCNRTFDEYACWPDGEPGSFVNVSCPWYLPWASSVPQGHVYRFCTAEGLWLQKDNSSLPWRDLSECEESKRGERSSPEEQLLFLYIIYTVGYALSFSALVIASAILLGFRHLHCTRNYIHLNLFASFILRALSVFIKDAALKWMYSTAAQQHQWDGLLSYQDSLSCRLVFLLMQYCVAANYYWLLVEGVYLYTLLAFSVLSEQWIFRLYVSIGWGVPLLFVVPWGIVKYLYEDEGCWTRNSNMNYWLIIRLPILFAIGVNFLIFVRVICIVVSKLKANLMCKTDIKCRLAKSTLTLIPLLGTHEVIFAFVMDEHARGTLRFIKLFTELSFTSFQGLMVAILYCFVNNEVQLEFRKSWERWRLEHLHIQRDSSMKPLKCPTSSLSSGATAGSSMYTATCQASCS

[3] = biological target: T4, human glucagon receptor (hGR) (Homo sapiens, UniProt P47871); test: Human glucagon receptor stimulated cAMP functional assay; type: cell-based; settings: hGR-HEK293 cells, relative EC50, HTRF cAMP
T4 construct: expressed in transfected cells; host or cells: 293HEK (crude plasma membranes)
T4 sequence (P47871 26-477): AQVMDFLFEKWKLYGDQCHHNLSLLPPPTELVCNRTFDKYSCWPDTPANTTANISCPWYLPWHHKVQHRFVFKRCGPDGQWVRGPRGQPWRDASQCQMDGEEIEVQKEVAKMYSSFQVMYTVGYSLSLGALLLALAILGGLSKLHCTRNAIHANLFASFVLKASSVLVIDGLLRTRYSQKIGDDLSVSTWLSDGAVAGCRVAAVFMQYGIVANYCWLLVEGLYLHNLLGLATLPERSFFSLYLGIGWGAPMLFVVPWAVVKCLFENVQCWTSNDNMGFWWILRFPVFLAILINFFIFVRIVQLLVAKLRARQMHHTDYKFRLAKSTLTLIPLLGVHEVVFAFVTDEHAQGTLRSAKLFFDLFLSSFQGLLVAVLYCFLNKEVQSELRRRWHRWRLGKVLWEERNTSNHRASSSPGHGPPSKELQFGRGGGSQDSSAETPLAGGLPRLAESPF
Procedure: Cells are stimulated with glucagon, buffer controls, or Test samples, and the cAMP generated within the cell is quantitated using the CisBio cAMP Dynamic 2 HTRF Assay Kit (62AM4PEC). Briefly, cAMP levels within the cell are detected by binding to the cAMP-d2 capture antibody in the presence of cell lysis buffer. A second detection antibody provided in the kit, anti-cAMP Cryptate, is added to create a competitive sandwich assay. When the detection antibody complex formed there is an increase in the signal that is measured on a Perkin-Elmer Envision® instrument.
The hGR-HEK293 cells are harvested from sub-confluent tissue culture dishes with Enzyme-Free Cell Dissociation Solution (Specialty Media 5-004-B). The cells are pelleted at 100× g at room temperature for 5 minutes then washed twice with phosphate buffered saline (PBS). […] The cells are then pelleted at 100× g at room temperature for 5 minutes. […] Test samples are prepared as 2 mM stocks in DMSO and frozen at −20° C. until needed. […] The reaction is stopped by addition of 20 μL of the cAMP-d2-capture antibody (CisBio) diluted into the CisBio lysis buffer then gently mixed in [sequence] shaker. […] The lysed cell and antibody mixtures are read after 1 hour at room temperature using the Perkin-Elmer Envision®. […]

male C57BL6 mice = test: Effects of compound on blood glucose levels in C57/B16 male mice; type: in vivo; settings: for Blood glucose levels after dosing: mean ± SEM, n=4
Procedure: To determine the effects of the compound of SEQ ID NO: 2 on blood glucose levels, the compound is administered to C57/B 16 mice. Three month old male C57BL6 mice (Harlan Laboratories) are used Animals are individually housed in a temperature-controlled (24° C.) facility with a 12 hour light/dark cycle, and have free access to food and water. After 1 week acclimation to the facility, mice are randomized to treatment groups (n=4/group). Test compound is formulated in Buffer 2 (see Physical stability test using Thioflavin T binding assay). On the morning of test, food is removed at 08:00 AM. Two hours after food is removed, the test compound is given subcutaneously at 0, 1, 3 or 10 μg/kg doses. Blood glucose is measured at time 0, 15, 30, 60 and 120 minutes after test compound administration with an ACCU-CHECK® (Roche Diagnostics) glucometer. […] Results are expressed as mean ±standard error mean (SEM) of 4 mice per group.
Blood glucose levels at 10 μg/kg of compound of SEQ ID NO: 2 is taken as the maximum value.

[4] = type: physicochemical
Procedure: The compound of SEQ ID NO: 2 is dissolved in 20 mM Tris-HCl/H2O, pH 8 to a 1 mg/mL concentration (peptide content), and filtered through a 0.22 micron filter (Millex, SLGV004SL). Solution is transferred to three vials: one for 4° C.; one for 30° C. and one for 40° C. […]. Samples are visually assessed at different time points for turbidity and phase separation.

[5] = biological target: T4, human glucagon receptor (hGR); test: Human glucagon receptor binding assay (SPA); settings: 293HEK membranes, 125I-labelled glucagon
Procedure: Plates are sealed, mixed end over end, and read with a MicroBeta® scintillation counter after 12 hours of settling time at room temperature.

[6] = Physical stability test using Thioflavin T binding assay (fibrillation); type: physicochemical; settings: 25° C.; for Thioflavin T fluorescence: 1 mg/mL, stirred 300 rpm
Procedure: Fibrillation is a common problem when glucagon is formulated in aqueous solution. To assess the level of fibrillation of the compound of the present invention, a Thioflavin T binding assay is performed.
All samples are mechanically stressed at 25° C. in a magnetic stir plate set at 300 rpm. […] Raw data is collected with Softmax Pro 5.4.1 (Molecular Devices) and imported to Excel.

[7] = pH 8, 120 hours, mechanical stress

Ki [1]: 8.63 ± 0.71 nM | Ki (human GIP-R): > 2240 nM | Ki [2]: > 3380 nM | EC50 [3]: 0.0658 ± 0.0167 nM | 4° C. % Main Peak 4 wk ([4]; RP-HPLC, pH 8, 4° C., 4 wk): 95.94% | 30° C. % Main Peak 4 wk ([4]; RP-HPLC, pH 8, 30° C., 4 wk): 93.73% | 40° C. % Main Peak 4 wk ([4]; RP-HPLC, pH 8, 40° C., 4 wk): 89.54% | % Main Peak Day 0 ([4]; RP-HPLC, pH 8, day 0): 96.26% | Solubility by visual assessment and RP-HPLC ([4]; pH 8): maintains good solubility | RP-HPLC main peak change ([4]; pH 8, 4-wk 30° C. vs 4° C.): < 2.5% | RP-HPLC main peak change ([4]; pH 8, 4-wk 40° C. vs 4° C.): < 7% | 30° C. vs 4° C. Recovery 4 wk ([4]; pH 8, total peak area, 4 wk): 101% | 40° C. vs 4° C. Recovery 4 wk ([4]; pH 8, total peak area, 4 wk): 99% | Ki [5]: 3.2 ± 0.76 nM | Physical stability by visual assessment and Thioflavin T binding [6, 7]: maintains physical stability | Thioflavin T fluorescence ([6]; Buffer 1 (20 mM Tris-HCl pH 8.0), t = 0 h): 193.9 flurescence units | Thioflavin T fluorescence ([6]; Buffer 1 (20 mM Tris-HCl pH 8.0), t = 40 h): 201.6 flurescence units | Thioflavin T fluorescence ([6]; Buffer 1 (20 mM Tris-HCl pH 8.0), t = 120 h): 226.1 flurescence units | Thioflavin T fluorescence ([6]; Buffer 2 (20 mM Tris-HCl, 150 nM NaCl, pH 8.0), t = 0 h): 182.2 flurescence units | Thioflavin T fluorescence ([6]; Buffer 2 (20 mM Tris-HCl, 150 nM NaCl, pH 8.0), t = 40 h): 210.1 flurescence units | Thioflavin T fluorescence ([6]; Buffer 2 (20 mM Tris-HCl, 150 nM NaCl, pH 8.0), t = 120 h): 213.6 flurescence units | Thioflavin T fluorescence ([6]; Buffer 3 (20 mM Tris-HCl, 300 mM sucrose, pH 8.0), t = 0 h): 263.3 flurescence units | Thioflavin T fluorescence ([6]; Buffer 3 (20 mM Tris-HCl, 300 mM sucrose, pH 8.0), t = 40 h): 297.0 flurescence units | Thioflavin T fluorescence ([6]; Buffer 3 (20 mM Tris-HCl, 300 mM sucrose, pH 8.0), t = 120 h): 310.9 flurescence units | Thioflavin T fluorescence ([6]; Buffer 4 (20 mM Tris-HCl, 300 mM sorbitol, pH 8.0), t = 0 h): 260.9 flurescence units | Thioflavin T fluorescence ([6]; Buffer 4 (20 mM Tris-HCl, 300 mM sorbitol, pH 8.0), t = 40 h): 285.1 flurescence units | Thioflavin T fluorescence ([6]; Buffer 4 (20 mM Tris-HCl, 300 mM sorbitol, pH 8.0), t = 120 h): 311.2 flurescence units | Thioflavin T fluorescence ([6]; Buffer 5 (20 mM Tris-HCl, 0.02% Tween 80, pH 8.0), t = 0 h): 251.7 flurescence units | Thioflavin T fluorescence ([6]; Buffer 5 (20 mM Tris-HCl, 0.02% Tween 80, pH 8.0), t = 40 h): 281.7 flurescence units | Thioflavin T fluorescence ([6]; Buffer 5 (20 mM Tris-HCl, 0.02% Tween 80, pH 8.0), t = 120 h): 306.8 flurescence units
Compound: CC(C)C[C@H](NC(=O)[C@H](Cc1c[nH]c2ccccc12)NC(=O)[C@H](C)NC(=O)[C@@H](NC(=O)[C@H](Cc1ccccc1)NC(=O)[C@H](CCC(=O)O)NC(=O)[C@H](C)NC(=O)[C@H](C)NC(=O)[C@H](CCCCN)NC(=O)[C@H](CCCCN)NC(=O)C(C)(C)NC(=O)[C@H](CC(=O)O)NC(=O)[C@H](CC(C)C)NC(=O)[C@H](Cc1ccc(O)cc1)NC(=O)[C@H](CCCCN)NC(=O)[C@H](CO)NC(=O)[C@@H](NC(=O)[C@H](CC(=O)O)NC(=O)[C@H](CO)NC(=O)[C@@H](NC(=O)[C@H](Cc1ccccc1)NC(=O)[C@@H](NC(=O)CNC(=O)[C@H](Cc1c[nH]cn1)NC(=O)[C@H](CO)NC(=O)[C@@H](N)Cc1ccc(O)cc1)[C@@H](C)O)[C@@H](C)O)C(C)C)C(C)C)C(=O)N[C@@H](CC(C)C)C(=O)N[C@@H](CCC(=O)O)C(=O)N[C@@H](CCC(=O)O)C(=O)O [SEQ ID NO: 2] (H-YSHGTFTSDVSKYLD[Aib]KKAAEFVAWLLEE-OH; N-terminus assumed)
Blood glucose levels after dosing (male C57BL6 mice; 1 μg/kg subcutaneously, 0 minutes): 132.0 ± 4.1 mg/dL | Blood glucose levels after dosing (male C57BL6 mice; 1 μg/kg subcutaneously, 15 minutes): 203.0 ± 15.8 mg/dL | Blood glucose levels after dosing (male C57BL6 mice; 1 μg/kg subcutaneously, 30 minutes): 220.4 ± 21.4 mg/dL | Blood glucose levels after dosing (male C57BL6 mice; 1 μg/kg subcutaneously, 60 minutes): 171.6 ± 10.2 mg/dL | Blood glucose levels after dosing (male C57BL6 mice; 1 μg/kg subcutaneously, 120 minutes): 168.9 ± 3.7 mg/dL | Blood glucose levels after dosing (male C57BL6 mice; 3 μg/kg subcutaneously, 0 minutes): 147.8 ± 2.6 mg/dL | Blood glucose levels after dosing (male C57BL6 mice; 3 μg/kg subcutaneously, 15 minutes): 246.4 ± 13.1 mg/dL | Blood glucose levels after dosing (male C57BL6 mice; 3 μg/kg subcutaneously, 30 minutes): 274.9 ± 16.3 mg/dL | Blood glucose levels after dosing (male C57BL6 mice; 3 μg/kg subcutaneously, 60 minutes): 201.1 ± 13.2 mg/dL | Blood glucose levels after dosing (male C57BL6 mice; 3 μg/kg subcutaneously, 120 minutes): 172.8 ± 8.9 mg/dL | Blood glucose levels after dosing (male C57BL6 mice; 10 μg/kg subcutaneously, 0 minutes): 146.0 ± 8.2 mg/dL | Blood glucose levels after dosing (male C57BL6 mice; 10 μg/kg subcutaneously, 15 minutes): 257.3 ± 7.7 mg/dL | Blood glucose levels after dosing (male C57BL6 mice; 10 μg/kg subcutaneously, 30 minutes): 294.0 ± 13.3 mg/dL | Blood glucose levels after dosing (male C57BL6 mice; 10 μg/kg subcutaneously, 60 minutes): 222.2 ± 13.9 mg/dL | Blood glucose levels after dosing (male C57BL6 mice; 10 μg/kg subcutaneously, 120 minutes): 147.0 ± 6.7 mg/dL | ED50 (blood glucose increase) (male C57BL6 mice; calculated on the 30 minute glucose measurements, 10 μg/kg taken as maximum, subcutaneous): 3.34 µg/kg | Fibrillation as measured by the Thioflavin T binding assay [6, 7]: did not demonstrate significant fibrillation
